The conditions of data set [1]: J. Ocular Pharmacol. 1988;1062:231; cited from earlier work.
For data set [2] the following is noted: J. Ocular Pharmacol. 1988;1062:231; cited from earlier work. The source holds these as a separate data set.
The nature of data set [3]: Diffusion/release of 5-FU through PVA membranes. Format: in vitro ADME. The note with it: heat treated PVA membrane. From the text:
Subconjunctival administration of 5-FU as an adjunct to filtration surgery in high risk glaucoma patients is attended by the necessity of multiple subconjunctival injections and the potentially serious complications due to delayed wound healing. Alternative delivery systems have been proposed including liposomes, topical administration, and sustained release polymers. […] Therefore, the rate of release was further decreased by layering EVA within the PVA to create a membrane system that was 6×8 mm in size.

Data set [4] is described as follows: Device/drug stability after heat treatment (Example 2). Format: physicochemical.
A further data set relates to rabbit retina. As to the kind of experiment: 6 mg bolus dose of intravitreal GCV: retinal toxicity in rabbit (Example 3). The conditions noted are these: 6 mg bolus dose intravitreal, two eyes. Format: in vivo, New Zealand albino rabbits.
Data set [5] deals with CMV retinitis. The conditions noted are these: intravenous; cited from earlier work.
The subject of data set [6] is CMV retinitis. The note with it: intravitreal injections of 200 to 400 μg once or twice weekly; cited from earlier work.
In another data set the test system is rabbit eye. Also noted: species or system New Zealand albino rabbits. The note with it: in vivo. Here is the method: New Zealand albino rabbits weighing 1.5 to 2 kg were used in this study. Anesthesia was provided with intramuscular ketamine HCl (40 mg/kg), attopine sulfate (0.1 mg/kg), xylazine HCl (10 mg/kg) and topical proparacaine (0.5%).
A baseline photopic electroretinogram (ERG) was recorded preoperatively in each rabbit using a corneal contact lens. A Gansfeld stimulus was used to improve standardization of results. After sedation, the rabbits were placed inside a Gansfeld stimulator 20 cm away from the flash unit. Flash (cone and rod response) and flicker (cone response) ERGs were done under light adapted conditions. Graphic measurements were recorded, and the waveform amplitudes and implicit times were calculated.
This was done because the pars plana of the New Zealand albino rabbit is poorly developed and it was therefore necessary to implant the devices and take vitreous samples through retina. The ERG was repeated four weeks later immediately prior to insertion of the device. […]
Vitreous samples were periodically removed using a 20 gauge needle on a tuberculin syringe. […] After removal, vitreous samples were stored at -60° C until analyzed by HPLC. […]
Vitreous samples were not collected from the treated eyes. […] In this group, devices were removed from the eyes and the amount of GCV still present determined by HPLC. […]

In a further data set the test system is AIDS patients. The conditions noted are these: human, in vivo; cited from earlier work.

For `O=c1[nH]cc(F)c(=O)[nH]1` [5-FU, 5-fluorouracil], in data set [1], the “permeability of EVA to 5-FU” value was “EVA was impermeable to 5-FU”. In addition, the “release of 5-FU through PVA” value in data set [2] is recorded as “PVA provided a linear release”. The “effect of heat treating the PVA membrane on 5-FU release rates” value in data set [3] was “release rates could be markedly decreased”.
Consider `Nc1nc(O)c2ncn(COC(CO)CO)c2n1` [GCV, ganciclovir], for which the “drug loss or decomposition after heat treatment of ganciclovir pellet” value in data set [4] (HPLC analysis) is given as “no apparent drug loss or decomposition”. Moreover, the “near IR after heat treatment” value in [4] (individual component) is recorded as “no change after heat treatment”. In addition, the “toxicity by indirect ophthalmoscopy” value in the data set on rabbit retina was “no evidence of toxicity”. Moreover, in the data set with CMV retinitis [5], the bone marrow toxicity result is “bone marrow toxicity limits its usefulness” and the “effect on CMV retinitis in AIDS patients” value was “effective in the treatment of CMV retinitis in AIDS patients”. In addition, the “effect on CMV retinitis” value in the data set on CMV retinitis [6] is given as “temporary remission of CMV retinitis in AIDS patients”. Besides, in the data set with rabbit eye, the observable retinal toxicity entry was “No observable retinal toxicity”.
With `Cc1cn([C@H]2C[C@H](N=[N+]=[N-])[C@@H](CO)O2)c(=O)[nH]c1=O` [zidovudine], the “effect in AIDS patients” value in the data set on AIDS patients was “prolong life and improve the immune function in AIDS patients”.

Source of the values: patent US5378475A, “Sustained release drug delivery devices” (priority 1991, dated 1995).
